Key:
Experiment in all cases: KINOMEscan
Format in all cases: binding
Settings in all cases: read-out: Remaining enzyme activity
CDKL3 = target: T1, CDKL3 (Homo sapiens, UniProt Q8IVW4)
T1 construct: purchased Ambit (DiscoverX) KINOMEscan; Cerep
Procedure, shortened: (§1)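 Three components per well: DNA-labelled kinase, bead-bound ligand, compound (SC81458, 10 μM final). Blocking buffer: SeaBlock, 1% BSA, 0.05% Tween 20, 1 mM DTT. Readout = qPCR of kinase in eluate.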

ERK1 = target: T2, ERK1 (Homo sapiens, UniProt P27361)
T2 construct: purchased Ambit (DiscoverX) KINOMEscan; Cerep
Procedure, shortened: as §1

KIT = target: T3, KIT (Homo sapiens, UniProt P10721)
T3 construct: purchased Ambit (DiscoverX) KINOMEscan; Cerep
Procedure, shortened: as §1

TLK2 = target: T4, TLK2 (Homo sapiens, UniProt Q86UE8)
T4 construct: purchased Ambit (DiscoverX) KINOMEscan; Cerep
Procedure, shortened: as §1

ACVR1 = target: T5, ACVR1 (Homo sapiens, UniProt Q04771)
T5 construct: purchased Ambit (DiscoverX) KINOMEscan; Cerep
Procedure, shortened: as §1

TNK2 = target: T6, TNK2 (Homo sapiens, UniProt Q07912)
T6 construct: purchased Ambit (DiscoverX) KINOMEscan; Cerep
Procedure, shortened: as §1

JNK2 = target: T7, JNK2 (Homo sapiens, UniProt P45984)
T7 construct: purchased Ambit (DiscoverX) KINOMEscan; Cerep
Procedure, shortened: as §1

EPHA2 = target: T8, EPHA2 (Homo sapiens, UniProt P29317)
T8 construct: purchased Ambit (DiscoverX) KINOMEscan; Cerep
Procedure, shortened: as §1

YSK1 = target: T9, YSK1 (Homo sapiens, UniProt O00506)
T9 construct: purchased Ambit (DiscoverX) KINOMEscan; Cerep
Procedure, shortened: as §1

BRSK1 = target: T10, BRSK1 (Homo sapiens, UniProt Q8TDC3)
T10 construct: purchased Ambit (DiscoverX) KINOMEscan; Cerep
Procedure, shortened: as §1

FLT3 = target: T11, FLT3 (Homo sapiens, UniProt P36888)
T11 construct: purchased Ambit (DiscoverX) KINOMEscan; Cerep
Procedure, shortened: as §1

TRKc = target: T12, TRKc (Homo sapiens, UniProt Q16288)
T12 construct: purchased Ambit (DiscoverX) KINOMEscan; Cerep
Procedure, shortened: as §1

MST3 = target: T13, MST3 (Homo sapiens, UniProt Q9Y6E0)
T13 construct: purchased Ambit (DiscoverX) KINOMEscan; Cerep
Procedure, shortened: as §1

[1] = target: T14, JAK1(JH2domain-pseudokinase) (Homo sapiens, UniProt P23458)
T14 construct: JAK1(JH2domain-pseudokinase); purchased Ambit (DiscoverX) KINOMEscan; Cerep
Procedure, shortened: as §1

MEK1 = target: T15, MEK1 (Homo sapiens, UniProt Q02750)
T15 construct: purchased Ambit (DiscoverX) KINOMEscan; Cerep
Procedure, shortened: as §1

CDK3 = target: T16, CDK3 (Homo sapiens, UniProt Q00526)
T16 construct: purchased Ambit (DiscoverX) KINOMEscan; Cerep
Procedure, shortened: as §1

AMPK-alpha2 = target: T17, AMPK-alpha2 (Homo sapiens, UniProt P54646)
T17 construct: purchased Ambit (DiscoverX) KINOMEscan; Cerep
Procedure, shortened: as §1

MAP4K2 = target: T18, MAP4K2 (Homo sapiens, UniProt Q12851)
T18 construct: purchased Ambit (DiscoverX) KINOMEscan; Cerep
Procedure, shortened: as §1

SgK110 = target: T19, SgK110 (Homo sapiens, UniProt P0C264)
T19 construct: purchased Ambit (DiscoverX) KINOMEscan; Cerep
Procedure, shortened: as §1

IGF1R = target: T20, IGF1R (Homo sapiens, UniProt P08069)
T20 construct: purchased Ambit (DiscoverX) KINOMEscan; Cerep
Procedure, shortened: as §1

[2] = target: T21, JAK2(JH1domain-catalytic) (Homo sapiens, UniProt O60674)
T21 construct: JAK2(JH1domain-catalytic); purchased Ambit (DiscoverX) KINOMEscan; Cerep
Procedure, shortened: as §1

MST2 = target: T22, MST2 (Homo sapiens, UniProt Q13188)
T22 construct: purchased Ambit (DiscoverX) KINOMEscan; Cerep
Procedure, shortened: as §1

EPHB1 = target: T23, EPHB1 (Homo sapiens, UniProt P54762)
T23 construct: purchased Ambit (DiscoverX) KINOMEscan; Cerep
Procedure, shortened: as §1

TTK = target: T24, TTK (Homo sapiens, UniProt P33981)
T24 construct: purchased Ambit (DiscoverX) KINOMEscan; Cerep
Procedure, shortened: as §1

LYN = target: T25, LYN (Homo sapiens, UniProt P07948)
T25 construct: purchased Ambit (DiscoverX) KINOMEscan; Cerep
Procedure, shortened: as §1

HIPK1 = target: T26, HIPK1 (Homo sapiens, UniProt Q86Z02)
T26 construct: purchased Ambit (DiscoverX) KINOMEscan; Cerep
Procedure, shortened: as §1

[3] = target: T27, RPS6KA4(Kin.Dom.2-C-term) (Homo sapiens, UniProt O75676)
T27 construct: RPS6KA4(Kin.Dom.2-C-term); purchased Ambit (DiscoverX) KINOMEscan; Cerep
Procedure, shortened: as §1

NEK6 = target: T28, NEK6 (Homo sapiens, UniProt Q9HC98)
T28 construct: purchased Ambit (DiscoverX) KINOMEscan; Cerep
Procedure, shortened: as §1

p38-beta = target: T29, p38-beta (Homo sapiens, UniProt Q15759)
T29 construct: purchased Ambit (DiscoverX) KINOMEscan; Cerep
Procedure, shortened: as §1

PRKCE = target: T30, PRKCE (Homo sapiens, UniProt Q02156)
T30 construct: purchased Ambit (DiscoverX) KINOMEscan; Cerep
Procedure, shortened: as §1

CHEK1 = target: T31, CHEK1 (Homo sapiens, UniProt O14757)
T31 construct: purchased Ambit (DiscoverX) KINOMEscan; Cerep
Procedure, shortened: as §1

BRSK2 = target: T32, BRSK2 (Homo sapiens, UniProt Q8IWQ3)
T32 construct: purchased Ambit (DiscoverX) KINOMEscan; Cerep
Procedure, shortened: as §1

MERTK = target: T33, MERTK (Homo sapiens, UniProt Q12866)
T33 construct: purchased Ambit (DiscoverX) KINOMEscan; Cerep
Procedure, shortened: as §1

T33 sequence (Q12866 21-999): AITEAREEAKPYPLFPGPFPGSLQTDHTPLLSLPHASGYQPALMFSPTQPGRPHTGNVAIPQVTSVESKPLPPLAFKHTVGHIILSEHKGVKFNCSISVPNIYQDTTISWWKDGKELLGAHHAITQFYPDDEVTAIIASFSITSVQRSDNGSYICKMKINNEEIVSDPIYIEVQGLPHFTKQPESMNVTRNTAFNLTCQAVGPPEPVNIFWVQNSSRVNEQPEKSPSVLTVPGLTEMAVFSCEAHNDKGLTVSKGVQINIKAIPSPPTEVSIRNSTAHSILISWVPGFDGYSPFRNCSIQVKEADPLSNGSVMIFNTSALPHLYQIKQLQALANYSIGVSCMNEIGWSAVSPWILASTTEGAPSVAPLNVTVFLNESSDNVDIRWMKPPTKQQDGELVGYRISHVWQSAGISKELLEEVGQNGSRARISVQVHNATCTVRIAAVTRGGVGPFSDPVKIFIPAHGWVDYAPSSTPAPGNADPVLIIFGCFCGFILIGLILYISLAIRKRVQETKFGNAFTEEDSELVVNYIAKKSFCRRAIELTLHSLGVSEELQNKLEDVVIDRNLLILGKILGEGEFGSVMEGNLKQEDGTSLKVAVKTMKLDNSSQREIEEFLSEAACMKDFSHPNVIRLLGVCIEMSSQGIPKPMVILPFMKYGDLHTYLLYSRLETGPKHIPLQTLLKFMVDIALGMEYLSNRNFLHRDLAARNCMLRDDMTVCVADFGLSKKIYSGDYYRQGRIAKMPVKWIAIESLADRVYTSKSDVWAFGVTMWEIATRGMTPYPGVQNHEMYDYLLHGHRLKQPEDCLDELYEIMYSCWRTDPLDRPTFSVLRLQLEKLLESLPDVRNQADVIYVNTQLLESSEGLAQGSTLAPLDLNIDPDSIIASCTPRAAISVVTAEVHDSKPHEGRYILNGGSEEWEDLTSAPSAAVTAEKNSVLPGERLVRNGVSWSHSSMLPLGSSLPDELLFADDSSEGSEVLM
T26 sequence (Q86Z02 whole entry): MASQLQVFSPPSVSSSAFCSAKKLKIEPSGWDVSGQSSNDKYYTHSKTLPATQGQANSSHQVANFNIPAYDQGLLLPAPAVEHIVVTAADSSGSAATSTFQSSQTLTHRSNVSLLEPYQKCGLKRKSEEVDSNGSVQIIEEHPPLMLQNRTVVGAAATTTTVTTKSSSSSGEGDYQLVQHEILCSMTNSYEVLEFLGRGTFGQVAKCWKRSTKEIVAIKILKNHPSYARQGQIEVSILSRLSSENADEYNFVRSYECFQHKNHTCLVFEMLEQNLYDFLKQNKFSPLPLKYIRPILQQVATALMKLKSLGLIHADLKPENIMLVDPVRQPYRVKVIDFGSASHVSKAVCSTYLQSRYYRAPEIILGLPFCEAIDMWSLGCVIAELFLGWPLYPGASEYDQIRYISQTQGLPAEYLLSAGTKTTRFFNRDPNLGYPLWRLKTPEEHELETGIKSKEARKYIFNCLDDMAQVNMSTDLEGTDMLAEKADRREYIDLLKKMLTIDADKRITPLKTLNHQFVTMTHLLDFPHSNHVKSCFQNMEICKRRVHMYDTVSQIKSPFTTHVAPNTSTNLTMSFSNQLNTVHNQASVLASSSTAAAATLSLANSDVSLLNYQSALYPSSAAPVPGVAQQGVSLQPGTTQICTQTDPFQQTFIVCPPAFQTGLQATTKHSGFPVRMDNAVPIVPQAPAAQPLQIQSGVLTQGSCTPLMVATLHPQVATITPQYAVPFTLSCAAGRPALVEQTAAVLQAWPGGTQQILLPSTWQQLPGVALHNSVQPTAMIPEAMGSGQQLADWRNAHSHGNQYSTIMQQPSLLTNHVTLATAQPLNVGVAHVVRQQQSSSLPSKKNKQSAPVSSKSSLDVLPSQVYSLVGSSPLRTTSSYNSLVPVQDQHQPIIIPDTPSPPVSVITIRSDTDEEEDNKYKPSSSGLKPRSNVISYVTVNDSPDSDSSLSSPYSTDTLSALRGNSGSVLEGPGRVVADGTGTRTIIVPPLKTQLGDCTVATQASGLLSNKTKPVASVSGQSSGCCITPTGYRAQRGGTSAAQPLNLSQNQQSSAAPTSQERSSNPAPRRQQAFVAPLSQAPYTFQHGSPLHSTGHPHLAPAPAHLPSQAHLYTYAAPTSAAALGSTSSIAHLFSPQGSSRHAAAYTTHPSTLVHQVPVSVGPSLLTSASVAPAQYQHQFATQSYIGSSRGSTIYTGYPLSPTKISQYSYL
T5 sequence (Q04771 21-509): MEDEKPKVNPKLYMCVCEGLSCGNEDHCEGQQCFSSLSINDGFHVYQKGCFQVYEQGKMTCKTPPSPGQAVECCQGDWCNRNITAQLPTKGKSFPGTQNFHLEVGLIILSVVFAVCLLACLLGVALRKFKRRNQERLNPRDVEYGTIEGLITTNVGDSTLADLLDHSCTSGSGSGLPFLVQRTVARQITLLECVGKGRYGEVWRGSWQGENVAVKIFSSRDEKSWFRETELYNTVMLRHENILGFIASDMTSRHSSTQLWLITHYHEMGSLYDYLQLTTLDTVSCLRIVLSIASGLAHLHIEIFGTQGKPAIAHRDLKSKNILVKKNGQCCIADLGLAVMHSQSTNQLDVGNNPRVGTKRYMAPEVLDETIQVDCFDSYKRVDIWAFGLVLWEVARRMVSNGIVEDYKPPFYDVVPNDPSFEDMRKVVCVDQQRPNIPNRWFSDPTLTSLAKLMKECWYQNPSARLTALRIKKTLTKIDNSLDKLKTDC
T11 sequence (P36888 27-993): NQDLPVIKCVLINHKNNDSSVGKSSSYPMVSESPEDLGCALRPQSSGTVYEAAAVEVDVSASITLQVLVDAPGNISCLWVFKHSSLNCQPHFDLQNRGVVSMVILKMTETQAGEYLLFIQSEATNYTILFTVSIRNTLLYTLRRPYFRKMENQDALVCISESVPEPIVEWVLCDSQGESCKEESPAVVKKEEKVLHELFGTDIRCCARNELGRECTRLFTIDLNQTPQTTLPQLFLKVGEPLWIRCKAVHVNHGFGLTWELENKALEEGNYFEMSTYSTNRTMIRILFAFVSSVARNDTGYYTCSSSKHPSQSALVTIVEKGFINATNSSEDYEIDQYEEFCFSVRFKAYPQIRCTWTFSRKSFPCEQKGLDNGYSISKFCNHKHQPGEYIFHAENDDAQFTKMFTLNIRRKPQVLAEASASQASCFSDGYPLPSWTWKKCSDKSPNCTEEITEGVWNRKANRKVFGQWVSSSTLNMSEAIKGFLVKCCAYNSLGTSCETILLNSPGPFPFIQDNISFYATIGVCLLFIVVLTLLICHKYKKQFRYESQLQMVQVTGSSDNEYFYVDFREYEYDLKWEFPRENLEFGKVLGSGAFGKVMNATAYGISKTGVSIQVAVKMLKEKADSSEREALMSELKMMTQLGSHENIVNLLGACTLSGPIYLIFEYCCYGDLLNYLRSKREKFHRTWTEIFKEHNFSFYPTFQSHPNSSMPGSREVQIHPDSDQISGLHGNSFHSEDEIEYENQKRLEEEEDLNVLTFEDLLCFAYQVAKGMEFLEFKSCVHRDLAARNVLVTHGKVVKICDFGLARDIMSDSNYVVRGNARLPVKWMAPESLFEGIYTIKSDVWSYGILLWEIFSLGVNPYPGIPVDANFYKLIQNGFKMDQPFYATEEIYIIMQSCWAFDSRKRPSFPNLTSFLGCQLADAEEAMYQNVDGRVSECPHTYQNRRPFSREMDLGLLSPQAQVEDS
T14 sequence (P23458 583-855 limits assumed): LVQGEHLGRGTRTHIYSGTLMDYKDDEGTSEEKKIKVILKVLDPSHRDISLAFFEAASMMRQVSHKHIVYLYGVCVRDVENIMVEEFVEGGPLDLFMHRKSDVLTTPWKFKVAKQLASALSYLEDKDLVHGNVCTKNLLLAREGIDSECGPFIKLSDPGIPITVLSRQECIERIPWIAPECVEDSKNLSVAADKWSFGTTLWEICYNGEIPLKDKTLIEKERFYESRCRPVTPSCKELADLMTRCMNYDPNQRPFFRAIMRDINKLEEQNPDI
T4 sequence (Q86UE8 whole entry): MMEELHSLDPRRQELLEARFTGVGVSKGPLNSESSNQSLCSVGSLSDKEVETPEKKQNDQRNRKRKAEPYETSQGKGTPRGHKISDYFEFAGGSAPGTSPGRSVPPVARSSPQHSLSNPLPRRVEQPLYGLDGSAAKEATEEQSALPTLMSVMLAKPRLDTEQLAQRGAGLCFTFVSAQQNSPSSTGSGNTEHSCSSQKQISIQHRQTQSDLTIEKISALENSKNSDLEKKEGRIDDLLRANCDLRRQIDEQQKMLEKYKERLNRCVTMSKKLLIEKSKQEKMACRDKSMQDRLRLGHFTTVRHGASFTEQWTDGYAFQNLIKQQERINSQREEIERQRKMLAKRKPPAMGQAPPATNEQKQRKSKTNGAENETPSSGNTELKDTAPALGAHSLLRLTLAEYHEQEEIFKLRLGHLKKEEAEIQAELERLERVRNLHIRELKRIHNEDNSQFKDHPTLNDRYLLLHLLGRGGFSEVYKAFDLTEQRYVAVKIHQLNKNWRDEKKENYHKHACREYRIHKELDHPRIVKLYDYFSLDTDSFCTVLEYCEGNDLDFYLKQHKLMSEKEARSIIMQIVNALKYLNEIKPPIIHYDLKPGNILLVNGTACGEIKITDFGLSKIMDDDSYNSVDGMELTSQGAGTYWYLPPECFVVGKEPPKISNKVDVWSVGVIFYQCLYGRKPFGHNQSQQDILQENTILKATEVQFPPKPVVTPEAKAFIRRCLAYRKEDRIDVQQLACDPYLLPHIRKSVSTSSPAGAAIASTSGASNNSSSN
T19 sequence (P0C264 whole entry): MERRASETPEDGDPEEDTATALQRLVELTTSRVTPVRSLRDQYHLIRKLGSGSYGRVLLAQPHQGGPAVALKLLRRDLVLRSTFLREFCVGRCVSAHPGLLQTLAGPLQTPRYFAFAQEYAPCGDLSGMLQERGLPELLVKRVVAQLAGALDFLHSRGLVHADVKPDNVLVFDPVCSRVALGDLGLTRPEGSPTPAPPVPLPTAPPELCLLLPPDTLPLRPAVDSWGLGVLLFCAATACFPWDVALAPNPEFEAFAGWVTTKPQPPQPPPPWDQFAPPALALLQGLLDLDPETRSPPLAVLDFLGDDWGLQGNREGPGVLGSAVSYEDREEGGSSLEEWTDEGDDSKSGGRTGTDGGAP

CCCCN1CCN(C(=N)c2cccc(NC(=O)Nc3ccc(S(=O)(=O)NCc4ccc(S(N)(=O)=O)cc4)cc3)c2)CC1 [SC81458, 4-(3-(3-((4-butylpiperazin-1-yl)(imino)methyl)phenyl)ureido)-N-(4-sulfamoylbenzyl) benzenesulfonamide]
remaining binding at 10 µM (CDKL3): 98% | remaining binding at 10 µM (ERK1): 99% | remaining binding at 10 µM (KIT): 60% | remaining binding at 10 µM (TLK2): 97% | remaining binding at 10 µM (ACVR1): 84% | remaining binding at 10 µM (TNK2): 94% | remaining binding at 10 µM (JNK2): 97% | remaining binding at 10 µM (EPHA2): 99% | remaining binding at 10 µM (YSK1): 76% | remaining binding at 10 µM (BRSK1): 69% | remaining binding at 10 µM (FLT3): 100% | remaining binding at 10 µM (TRKc): 100% | remaining binding at 10 µM (MST3): 100% | remaining binding at 10 µM [1]: 89% | remaining binding at 10 µM (MEK1): 100% | remaining binding at 10 µM (CDK3): 100% | remaining binding at 10 µM (AMPK-alpha2): 96% | remaining binding at 10 µM (MAP4K2): 100% | remaining binding at 10 µM (SgK110): 100% | remaining binding at 10 µM (IGF1R): 77% | remaining binding at 10 µM [2]: 100% | remaining binding at 10 µM (MST2): 100% | remaining binding at 10 µM (EPHB1): 84% | remaining binding at 10 µM (TTK): 91% | remaining binding at 10 µM (LYN): 97% | remaining binding at 10 µM (HIPK1): 100% | remaining binding at 10 µM [3]: 92% | remaining binding at 10 µM (NEK6): 100% | remaining binding at 10 µM (p38-beta): 100% | remaining binding at 10 µM (PRKCE): 100% | remaining binding at 10 µM (CHEK1): 98% | remaining binding at 10 µM (BRSK2): 100% | remaining binding at 10 µM (MERTK): 100%

From PMC5290327, “SC83288 is a clinical development candidate for the treatment of severe malaria” (Nature Communications, 2017)
